Cures, complete responses and partial responses data for two compounds are collected here from US8987281B2, “Methods of treating cancer” (Endocyte, Inc., priority 2010, dated 2015).

The subject of this assay is KB tumors. Put plainly: In vivo antitumor experiments, s.c. KB tumors in nu/nu mice. The settings on record: i.v., EC145 1 μmol/kg/injection TIW 2 weeks. The procedure:
Four to six week-old female nu/nu mice (Charles River, Wilmington, Mass.) or six to seven week-old female Balb/c mice (Harlan Sprague Dawley, Inc., Indianapolis, Ind.) were maintained on a standard 12 h light-dark cycle and fed ad libitum with folate-deficient chow (Harlan diet #TD00434, Harlan Teklad, Madison, Wis.) for the duration of the experiment. FR-positive human nasopharyngeal KB cells and human ovarian IGROV cells were grown continuously as a monolayer, using folate-free RPMI medium (FFRPMI) containing 10% heat-inactivated fetal calf serum (HIFCS) at 37° C. in a 5% CO2/95% air-humidified atmosphere with no antibiotics. Syngeneic FR-positive Madison 109 (M109) lung carcinoma cells were generated from M109 tumors and cultured for a few days in FFRPMI containing 10% HIFCS for a few days before implantation in mice. KB cells (1×10^6 per nu/nu mouse), M109 cells (1×10^6 per Balb/c mouse), IGROV cells (4×10^6 per nu/nu mouse) in 100 μL were injected in the subcutis of the dorsal medial area. Mice were divided into groups of five, and test articles were freshly prepared and injected through the lateral tail vein under sterile conditions in a volume of 200 μL of phosphate-buffered saline (PBS). […] The mice in the control groups received no treatment. Growth of each s.c. tumor was followed by measuring the tumor three times per week during treatment and twice per week thereafter until a volume of 1500 mm^3 was reached. Tumors were measured in two perpendicular directions using Vernier calipers, and their volumes were calculated as 0.5×L×W^2, where L=measurement of longest axis in mm and W=measurement of axis perpendicular to L in mm. As a general measure of toxicity, changes in body weights were determined on the same schedule as tumor volume measurements. Survival of animals was monitored daily. Animals that were moribund (or unable to reach food or water) were euthanized by CO2 asphyxiation. All in vivo studies were performed in accordance with the American Accreditation Association of Laboratory Animal Care guidelines.
For individual tumors, a partial response (PR) was defined as volume regression>50% but with measurable tumor (>2 mm^3) remaining at all times. Complete response (CR) was defined as a disappearance of measurable tumor mass (<2 mm^3) at some point until the end of the study. Cures were defined as CR's without tumor re-growth within the study time frame.
See FIG. 1 for tumor response and FIG. 2 for weight change during the treatment period.
See FIG. 3 for tumor response and FIG. 4 for weight change during the treatment period.
See FIG. 5 for tumor response and FIG. 6 for weight change during the treatment period.

[1] abbreviates: KB tumors 144-212 mm^3, five animals per group, Docetaxel 10 mg/kg TIW 1 week (FIG. 1).
[2] abbreviates: KB tumors 111-173 mm^3, five animals per group, Paclitaxel 20 mg/kg TIW in Cremophor/ethanol 1 week (FIG. 5).

Regarding `CC(=O)O[C@@]12CO[C@@H]1C[C@H](O)[C@@]1(C)C(=O)[C@H](O)C3=C(C)[C@@H](OC(=O)[C@H](O)[C@@H](NC(=O)OC(C)(C)C)c4ccccc4)C[C@@](O)([C@@H](OC(=O)c4ccccc4)[C@H]21)C3(C)C` [Docetaxel, docetaxel], under setting [1], the Cures entry is given as “no”, the complete responses entry is reported as “no” and the partial responses entry was “no”.
For the compound `CC(=O)O[C@H]1C(=O)[C@@]2(C)[C@H]([C@H](OC(=O)c3ccccc3)[C@]3(O)C[C@H](OC(=O)[C@H](O)[C@@H](NC(=O)c4ccccc4)c4ccccc4)C(C)=C1C3(C)C)[C@]1(OC(C)=O)CO[C@@H]1C[C@@H]2O` [Paclitaxel, paclitaxel], under setting [2], the Cures was determined as 3 and the complete responses was 2.
